Columns and labels:
cRBC = assay type: cell-based, canine
Protocol: SEQ ID NO: 1 was selected for further research. Toxicity of SEQ ID NO: 1 to eukaryotic blood cells was compared to that of tachyplesin (SEQ ID NO: 13). A standard, well referenced red blood cell hemolysis assay was employed against multiple species to test the lysis potential of the peptides. Red blood cells (RBCs) were prepared and isolated by several centrifuge and wash steps to remove the plasma fraction. A dose titration (50 μM to 0.05 μM) of test peptides and control peptide melittin were spotted from 50 mM stocks in a 384 well plate. Prepared RBCs were incubated with peptide for one hour at 37° C. Percent hemolysis was measured by optical density at 405 nm and utilizing 1% TritonX100 as hundred percent effect (HPE) and phosphate buffer alone as zero percent effect (ZPE).

S. aureus ATCC 29213 = assay type: cell-based; set-up: key to SA 29213: MIC in μM (lowest conc. with no visible growth); details: S. aureus 29213, Table 6
Protocol: (§1) Peptides according to SEQ ID NOs as listed in Table 1 were prepared by a commercial manufacturer (CS Bio, Menlo Park, Calif.) using solid phase synthesis. Antimicrobial activity was assessed by determining the Minimal Inhibitory Concentration (MIC) against S. aureus and E. coli. Briefly, Microbroth MICs were performed using CLSI methodology (VET01-S2). For S. aureus and E. coli ATCC strains, TSA with 5% lysed horse blood agar was used for overnight culturing at 37° C. ambient air. A 0.5 mM stock for each peptide was made with cell culture water, 0.01% acetic acid and serially diluted and spotted (10 μL) in a 96-well plate for in assay dose titration concentration of 50 μM to 0.05 μM. 0.5 McFarland Standard of each strain was diluted 1:250 in Mueller-Hinton Broth (MHB). 90 μL of culture suspension was then added upon drug in the 96-well plate for overnight incubation for 18-20 hours. The MIC was determined visually at the first well of no visible growth at the corresponding concentration.

E. coli ATCC 25922 = assay type: cell-based; details: E. coli 25922, Table 6
Protocol: as §1

[1] = system: MSSP (Methicillin-Susceptible Staphylococcus pseudintermedius); test: MIC against selected strains of MSSP; assay type: cell-based; set-up: MIC MSSP 49051 / MIC MSSP 81923 / MIC MSSP 84250 / Effect on MSSP 86000 / Effect on MSSP 72036 / Effect on MSSP 78032: unit not given beside the values; Effect on MSSP 71990 / Effect on MSSP 86001 / Effect on MSSP 72191 / Effect on MSSP 76986 / Effect on MSSP 77378 / Effect on MSSP 81923 / Effect on MSSP 84250 / Effect on MSSP 84658: unit: µM; details: for SP 49051: S. pseudintermedius 49051, Table 6; for Effect on MSSP 71990: strain 71990, Table 5; for Effect on MSSP 72036: strain 72036, Table 5; for Effect on MSSP 72191: strain 72191, Table 5; for Effect on MSSP 76986: strain 76986, Table 5; for Effect on MSSP 77378: strain 77378, Table 5; for Effect on MSSP 78032: strain 78032, Table 5; for Effect on MSSP 81923: strain 81923, Table 5; for Effect on MSSP 84250: strain 84250, Table 5; for Effect on MSSP 84658: strain 84658, Table 5; for Effect on MSSP 86000: strain 86000, Table 5; for Effect on MSSP 86001: strain 86001, Table 5
Protocol: as §1
(§2) Antimicrobial activity of the peptides listed in Table 2 against different strains of MSSP (Methicillin-Susceptible Staphylococcus pseudintermedius) and MRSP (Methicillin-Resistant Staphylococcus pseudintermedius) was further assessed. The results are in Tables 3 and 4, respectively.

[2] = system: MRSP (Methicillin-Resistant Staphylococcus pseudintermedius); test: MIC against selected strains of MRSP; assay type: cell-based; set-up: key to MIC MRSP 72192 / MIC MRSP 76923 / MR 71994 / Mr 88493 / MR 72035 / MR 72192 / MR 76923 / MR 79882 / MR 80279 / MR 81926 / MR 86002 / MR 87665: MIC in μM (visual, first well with no growth); details: for MR 71994: MRSP strain 71994, Table 6; for MR 72035: MRSP strain 72035, Table 6; for MR 72192: MRSP strain 72192, Table 6; for MR 76923: MRSP strain 76923, Table 6; for MR 79882: MRSP strain 79882, Table 6; for MR 80279: MRSP strain 80279, Table 6; for MR 81926: MRSP strain 81926, Table 6; for MR 86002: MRSP strain 86002, Table 6; for MR 87665: MRSP strain 87665, Table 6; for Mr 88493: MRSP strain 88493, Table 6
Protocol: as §1, §2

[3] = system: Canine-derived epithelial keratinocyte (CPEK) cells; assay type: cell-based
Protocol: Safety of the peptides listed in table 2 was determining by measuring cell viability. Canine-derived epithelial keratinocyte (CPEK) cells were propagated to determine cell viability in the presence of peptides. Cells were grown from a frozen stock in CnT-09-5 (with supplements) pre-warmed media in a T75 flask and incubated overnight at 37° C., 5% CO2. Cells were washed with phosphate buffer and replenished with pre-warmed CnT-05-9 media and repeated for several days until cells reached a density of 6.6×10^4 cells/mL. Cells were then transferred to a 384 well plate, allowed to settle and dosed with peptides and melittin control peptide (50 μM to 0.05 μM) and incubated overnight at 37° C., 5% CO2. 0.1% TritonX100 as (HPE) and phosphate buffer alone as (ZPE) were added to the plates to calculate percent effect once the assay was terminated with 10 μL CELLTITER-GLO® assay reagents for a luminescent readout.

28 (PKWCFRVCYRGICYRRCR; Artificial Antimicrobial peptide) [compound 28]
cRBC (50 μM) (cRBC): 94.4
SA 29213 (S. aureus ATCC 29213): 6.2
EC 25922 (E. coli ATCC 25922): 0.8 µM
SP 49051 [1]: 1.6
Effect on MSSP 71990 [1]: 1.6
Effect on MSSP 72036 [1]: 1.6
Effect on MSSP 72191 [1]: 1.6
Effect on MSSP 76986 [1]: 0.8
Effect on MSSP 77378 [1]: 1.6
Effect on MSSP 78032 [1]: 1.6
Effect on MSSP 81923 [1]: 1.6
Effect on MSSP 84250 [1]: 1.6
Effect on MSSP 84658 [1]: 1.6
Effect on MSSP 86000 [1]: 1.6
Effect on MSSP 86001 [1]: 1.6
MR 71994 [2]: 1.6
MR 72035 [2]: 3.1
MR 72192 [2]: 3.1
MR 76923 [2]: 1.6
MR 79882 [2]: 0.8
MR 80279 [2]: 1.6
MR 81926 [2]: 1.6
MR 86002 [2]: 1.6
MR 87665 [2]: 1.6
Mr 88493 [2]: 1.6
CPEK (50 μM) [3]: 19.4

29 (PKWCFRVCYRGICYRRCRD; Artificial Antimicrobial peptide) [compound 29]
cRBC (50 μM) (cRBC): 68.2
SA 29213 (S. aureus ATCC 29213): 3.1
EC 25922 (E. coli ATCC 25922): 1.6 µM
SP 49051 [1]: 1.6
Effect on MSSP 71990 [1]: 1.6
Effect on MSSP 72036 [1]: 1.6
Effect on MSSP 72191 [1]: 1.6
Effect on MSSP 76986 [1]: 1.6
Effect on MSSP 77378 [1]: 0.8
Effect on MSSP 78032 [1]: 0.8
Effect on MSSP 81923 [1]: 0.8
Effect on MSSP 84250 [1]: 0.8
Effect on MSSP 84658 [1]: 1.6
Effect on MSSP 86000 [1]: 1.6
Effect on MSSP 86001 [1]: 1.6
MR 71994 [2]: 1.6
MR 72035 [2]: 1.6
MR 72192 [2]: 0.8
MR 76923 [2]: 1.6
MR 79882 [2]: 0.8
MR 80279 [2]: 0.8
MR 81926 [2]: 0.8
MR 86002 [2]: 1.6
MR 87665 [2]: 1.6
Mr 88493 [2]: 1.6
CPEK (50 μM) [3]: 17.5

30 (PWCFRVCYRGICYRRCR; Artificial Antimicrobial peptide) [compound 30]
cRBC (50 μM) (cRBC): 63.5
SA 29213 (S. aureus ATCC 29213): 3.1
EC 25922 (E. coli ATCC 25922): 1.6 µM
SP 49051 [1]: 1.6
Effect on MSSP 71990 [1]: 0.8
Effect on MSSP 72036 [1]: 0.8
Effect on MSSP 72191 [1]: 1.6
Effect on MSSP 76986 [1]: 0.8
Effect on MSSP 77378 [1]: 0.8
Effect on MSSP 78032 [1]: 0.8
Effect on MSSP 81923 [1]: 0.8
Effect on MSSP 84250 [1]: 0.8
Effect on MSSP 84658 [1]: 1.6
Effect on MSSP 86000 [1]: 1.6
Effect on MSSP 86001 [1]: 1.6
MR 71994 [2]: 1.6
MR 72035 [2]: 0.8
MR 72192 [2]: 0.8
MR 76923 [2]: 0.8
MR 79882 [2]: 0.8
MR 80279 [2]: 0.8
MR 81926 [2]: 1.6
MR 86002 [2]: 1.6
MR 87665 [2]: 1.6
Mr 88493 [2]: 1.6
CPEK (50 μM) [3]: 17.0

31 (PWCFRVCYRGICYRRCRD; Artificial Antimicrobial peptide) [compound 31]
cRBC (50 μM) (cRBC): 43.5
SA 29213 (S. aureus ATCC 29213): 3.1
EC 25922 (E. coli ATCC 25922): 1.6 µM
SP 49051 [1]: 1.6
Effect on MSSP 71990 [1]: 1.6
Effect on MSSP 72036 [1]: 1.6
Effect on MSSP 72191 [1]: 1.6
Effect on MSSP 76986 [1]: 1.6
Effect on MSSP 77378 [1]: 1.6
Effect on MSSP 78032 [1]: 1.6
Effect on MSSP 81923 [1]: 1.6
Effect on MSSP 84250 [1]: 1.6
Effect on MSSP 84658 [1]: 1.6
Effect on MSSP 86000 [1]: 1.6
Effect on MSSP 86001 [1]: 1.6
MR 71994 [2]: 1.6
MR 72035 [2]: 1.6
MR 72192 [2]: 1.6
MR 76923 [2]: 1.6
MR 79882 [2]: 1.6
MR 80279 [2]: 1.6
MR 81926 [2]: 1.6
MR 86002 [2]: 1.6
MR 87665 [2]: 1.6
Mr 88493 [2]: 1.6
CPEK (50 μM) [3]: 11.0

97 (KRCFRVCYRGICYRRCRD; Artificial Antimicrobial peptide) [compound 97]
cRBC (50 μM) (cRBC): 31.2
SA 29213 (S. aureus ATCC 29213): 6.2
EC 25922 (E. coli ATCC 25922): 3.1 µM
SP 49051 [1]: 3.1
Effect on MSSP 71990 [1]: 3.1
Effect on MSSP 72036 [1]: 3.1
Effect on MSSP 72191 [1]: 3.1
Effect on MSSP 76986 [1]: 1.6
Effect on MSSP 77378 [1]: 1.6
Effect on MSSP 78032 [1]: 3.1
Effect on MSSP 81923 [1]: 3.1
Effect on MSSP 84250 [1]: 3.1
Effect on MSSP 84658 [1]: 3.1
Effect on MSSP 86000 [1]: 1.6
Effect on MSSP 86001 [1]: 1.6
MR 71994 [2]: 1.6
MR 72035 [2]: 3.1
MR 72192 [2]: 3.1
MR 76923 [2]: 1.6
MR 79882 [2]: 1.6
MR 80279 [2]: 3.1
MR 81926 [2]: 1.6
MR 86002 [2]: 3.1
MR 87665 [2]: 3.1
Mr 88493 [2]: 3.1
CPEK (50 μM) [3]: 12.9

98 (KWCVRVCYRGICYRRCRD; Artificial Antimicrobial peptide) [compound 98]
cRBC (50 μM) (cRBC): 35.0
SA 29213 (S. aureus ATCC 29213): 3.1
EC 25922 (E. coli ATCC 25922): 1.6 µM
SP 49051 [1]: 1.6
Effect on MSSP 71990 [1]: 1.6
Effect on MSSP 72036 [1]: 1.6
Effect on MSSP 72191 [1]: 1.6
Effect on MSSP 76986 [1]: 1.6
Effect on MSSP 77378 [1]: 1.6
Effect on MSSP 78032 [1]: 1.6
Effect on MSSP 81923 [1]: 1.6
Effect on MSSP 84250 [1]: 1.6
Effect on MSSP 84658 [1]: 1.6
Effect on MSSP 86000 [1]: 1.6
Effect on MSSP 86001 [1]: 1.6
MR 71994 [2]: 1.6
MR 72035 [2]: 3.1
MR 72192 [2]: 1.6
MR 76923 [2]: 1.6
MR 79882 [2]: 0.8
MR 80279 [2]: 1.6
MR 81926 [2]: 1.6
MR 86002 [2]: 1.6
MR 87665 [2]: 1.6
Mr 88493 [2]: 1.6
CPEK (50 μM) [3]: 9.3

— patent publication US11352396B2, “Antimicrobial peptides and methods of using same” (Zoetis Services LLC, priority 2017, dated 2022)
